# Numbered stars: 1 amine (or outer) side, 2 acyl side, 3 side chain; on linkers, the order of the positions; unused ones are H or OH. Square brackets hold non-standard residues; d marks the D form. Peptide text beside a SMILES is read from it. * marks the point of attachment. Dolaproine = CO[C@@H]([C@@H]1CCCN1)[C@@H](C)C(=O)O; Hexanoyl(6-maleimido) = O=C1C=CC(=O)N1CCCCCC(=O)*; Dil = CC[C@H](C)[C@H](NC)[C@@H](CC(=O)O)OC; PABC = O=C(OCc1ccc(N[*:1])cc1)[*:2]; X1 = C[C@@H](N*)[C@@H](O)c1ccccc1; Cit = NC(=O)NCCC[C@H](N)C(=O)O; NMeV = CN[C@H](C(=O)O)C(C)C
# Legend:
# [1] = molecular target: Sclerotium rolfsii lectin recombinant variant Rec-2, SEQ ID NO: 2 (Agroathelia rolfsii, UniProt A0A0M3KL30); test: O-Glycan array binding study (94 glycans)
# [2] = test system: human urinary bladder cancer cell line (T-24); test: Cytotoxicity assay, cell titer glow luminescence, 72 h; format: cell-based; conditions: 72 h
# Procedure: (§1) T-24 Cell line were cultured in McCoy's 5a Medium Modified supplemented with 10% FBS and the PA-1 Cell line was cultured in EMEM Media supplemented with 10% FBS. The assay was performed by plating 5,000 cells/well and incubated at 37° C. overnight. […] Each concentration was added in triplicate and media-only wells used as a control. After incubation for 72 h cell titer glow (Promega) reagent (50 μL) was added to each well and the plates shaken for 5 mins and the luminescence was recorded. Percent viability was determined by dividing luminescence of the treated well by the non-treated well and multiplying by 100. Data was analysed using non-linear regression with a logarithmic scale.
# (§2) 5,000 cells/well were plated and incubated at 37° C. overnight. Conjugates/vehicle control dilutions were made in respective media and added to cells. Volume added: 50 uL to each well. Starting treatment concentration was 1 uM for Conjugate of formula 16 and 18, and control SEQ ID NO: 5 alone and 10% for vehicle control (1×PBS with 20% DMA) and then diluted 10-fold down for a total of 11 treatment dilutions. Each concentration was analysed in triplicates. Media-only wells was used as a control to calculate percent viability. Cell titer glow reagent (volume: 50 uL) was added to each well, the plate was shaken for 5 mins and the luminescence was recorded. Drug Treatment Time: 72 hours. Percent viability was calculated by dividing the luminescence signal obtained for each treated well by the untreated well (media-only control) and multiplying by 100.
# [3] = test system: ovarian cancer cell line (PA-1); test: as above; format: cell-based; conditions: 72 h
# Procedure: as §1, §2
# AGS Stomach = test: Cytotoxic effect by MTT assay, 48 h; conditions: AGS, 48 h
# Procedure: (§3) Cells were treated with Test Items at various concentrations (0.0001 μM-10 μM) for 48 h. The cells corresponding to Positive Control group were treated with Doxorubicin at a concentration ranging from 0.1 μM-100 μM. The Untreated cells were used as Control. After 48 h of incubation, the effect of Test Items on cytotoxicity of cells was determined by MTT assay, the plates were taken out and 20 μl of 5 mg/m1 of MTT 3-(4,5-dimethythiazol-2-yl)-2,5-diphenyl tetrazolium bromide solution was added to all the wells. Cells were incubated for 3 h at 37° C. The supernatant was aspirated. 150 μl of DMSO was added to each well to dissolve formazan crystals. The absorbance of each well was then read at 540 nm using Synergy HT micro plate reader.
# (§4) The % Cytotoxicity was calculated using the formula:
# (§5) Where, X=Absorbance of cells treated with Test Item; R=Absorbance of Control cells (Untreated cells maintained in growth medium only).
# (§6) Selectivity Index was calculated using the formula:
# (§7) SI=IC50 in Normal cell/IC50 in cancer cell.
# (§8) Activity scores of the Selective Index values were categorized as: • Not selective (SI value ≤1) • Moderately selective (1<SI value <5) • Selective (SI value ≥5)
# HT29 Colon = test: Cytotoxic effect by MTT assay, 48 h; conditions: for Percent cytotoxicity wrt control: 48 h
# Procedure: as §3, §4, §5, §6, §7, §8
# KB Cervix = test: Cytotoxic effect by MTT assay, 48 h; conditions: for Percent cytotoxicity wrt control: KB, 48 h
# Procedure: as §3, §4, §5, §6, §7, §8
# MDA-MB-231 Breast = test: Cytotoxic effect by MTT assay, 48 h; conditions: for Percent cytotoxicity wrt control: 48 h
# Procedure: as §3, §4, §5, §6, §7, §8
# MG-63 Bone = test: Cytotoxic effect by MTT assay, 48 h; conditions: for Percent cytotoxicity wrt control: 48 h
# Procedure: as §3, §4, §5, §6, §7, §8
# PA-1 Ovary = test: Cytotoxic effect by MTT assay, 48 h; conditions: for Percent cytotoxicity wrt control: 48 h
# Procedure: as §3, §4, §5, §6, §7, §8
# PANC-1 Pancreatic = test: Cytotoxic effect by MTT assay, 48 h; conditions: for Percent cytotoxicity wrt control: 48 h
# Procedure: as §3, §4, §5, §6, §7, §8
# T24 Bladder = test: Cytotoxic effect by MTT assay, 48 h; conditions: for Percent cytotoxicity wrt control: 48 h
# Procedure: as §3, §4, §5, §6, §7, §8
# U251 MG Brain = test: Cytotoxic effect by MTT assay, 48 h; conditions: for Percent cytotoxicity wrt control: U251 MG, 48 h
# Procedure: as §3, §4, §5, §6, §7, §8
# A549 Lungs = test: Cytotoxic effect by MTT assay, 48 h; conditions: for Percent cytotoxicity wrt control: 48 h
# Procedure: as §3, §4, §5, §6, §7, §8
# PBMC Normal = test: Cytotoxic effect by MTT assay, 48 h; conditions: for Percent cytotoxicity wrt control: PBMC, 48 h
# Procedure: as §3, §4, §5
# PA-1 cells = test: Cytotoxicity (cell titer glo, 72 h) ovarian cancer cell line PA-1; format: cell-based; conditions: Homo sapiens, PA-1 cell line
# Procedure: as §1
# 5,000 cells/well were plated and incubated at 37° C. overnight. Conjugates/vehicle control dilutions were made in respective media and added to cells. Volume added: 50 uL to each well. […] Each concentration was analysed in triplicates. […] Cell titer glow reagent (volume: 50 uL) was added to each well, the plate was shaken for 5 mins and the luminescence was recorded. […] Percent viability was calculated by dividing the luminescence signal obtained for each treated well by the untreated well (media-only control) and multiplying by 100.
molecule,measurement,setting,value
"CC(=O)N[C@@H]1[C@@H](O[C@@H]2O[C@H](CO)[C@H](O)[C@H](O)[C@H]2O)[C@@H](O)[C@@H](CO)O[C@@H]1O [T antigen, Galβ1-3GalNAcα]",Estimated Kd,[1],0.319 ug/m
same,glycan binding,[1],Main binding motifs
COc1cc2c(cc1OCCCCCOc1cc3c(cc1OC)C(=O)N1C=C(C)C[C@H]1[C@H](O)N3C(=O)OCc1ccc(NC(=O)[C@H](C)NC(=O)[C@@H](NC(=O)CCOCCOCCOCCOCCOCCOCCOCCOCCNC(=O)CCN3C(=O)C=CC3=O)C(C)C)cc1)N=C[C@@H]1CC(C)=CN1C2=O [Tesirine],IC50,[2],145 nM
same,IC50,[3],13.4 nM
same,Percent cytotoxicity wrt control,AGS Stomach; 0.0001 μM,66.4%
same,Percent cytotoxicity wrt control,AGS Stomach; 0.01 μM,77.8%
same,Percent cytotoxicity wrt control,AGS Stomach; 0.1 μM,81.3%
same,Percent cytotoxicity wrt control,AGS Stomach; 1 μM,81.3%
same,Percent cytotoxicity wrt control,AGS Stomach; 10 μM,81.6%
same,Percent cytotoxicity wrt control,"HT29 Colon; HT29, 0.0001 μM",37.4%
same,Percent cytotoxicity wrt control,"HT29 Colon; HT29, 0.001 μM",44.5%
same,Percent cytotoxicity wrt control,"HT29 Colon; HT29, 0.01 μM",47.7%
same,Percent cytotoxicity wrt control,"HT29 Colon; HT29, 0.1 μM",48.3%
same,Percent cytotoxicity wrt control,"HT29 Colon; HT29, 1 μM",49%
same,IC50,"HT29 Colon; read-out: IC50 Values, HT29 Colon, after 48 h of treatment",20 nM
same,Percent cytotoxicity wrt control,KB Cervix; 0.0001 μM,−9.5%
same,Percent cytotoxicity wrt control,KB Cervix; 0.001 μM,1%
same,Percent cytotoxicity wrt control,KB Cervix; 0.01 μM,76.2%
same,Percent cytotoxicity wrt control,KB Cervix; 0.1 μM,93.8%
same,Percent cytotoxicity wrt control,KB Cervix; 1 μM,89.1%
same,Percent cytotoxicity wrt control,KB Cervix; 10 μM,92.7%
same,IC50,"KB Cervix; read-out: IC50 Values, KB Cervix, after 48 h of treatment",6 nM
same,Percent cytotoxicity wrt control,"MDA-MB-231 Breast; MDA-MB-231, 0.001 μM",41.9%
same,Percent cytotoxicity wrt control,"MDA-MB-231 Breast; MDA-MB-231, 1 μM",69.2%
same,IC50,"MDA-MB-231 Breast; read-out: IC50 Values, MDA-MB-231 Breast, after 48 h of treatment",1.4 nM
same,Percent cytotoxicity wrt control,"MG-63 Bone; MG-63, 0.0001 μM",46.6%
same,Percent cytotoxicity wrt control,"MG-63 Bone; MG-63, 0.001 μM",69.4%
same,Percent cytotoxicity wrt control,"MG-63 Bone; MG-63, 0.01 μM",81.2%
same,Percent cytotoxicity wrt control,"MG-63 Bone; MG-63, 1 μM",82.3%
same,IC50,"MG-63 Bone; read-out: IC50 Values, MG-63 Bone, after 48 h of treatment",0.03 nM
same,Percent cytotoxicity wrt control,"PA-1 Ovary; PA-1, 0.001 μM",66.8%
same,Percent cytotoxicity wrt control,"PA-1 Ovary; PA-1, 0.01 μM",79.1%
same,Percent cytotoxicity wrt control,"PA-1 Ovary; PA-1, 1 μM",78.1%
same,Percent cytotoxicity wrt control,"PA-1 Ovary; PA-1, 10 μM",80.5%
same,IC50,"PA-1 Ovary; read-out: IC50 Values, PA-1 Ovary, after 48 h of treatment",0.00599 nM
same,Percent cytotoxicity wrt control,"PANC-1 Pancreatic; PANC-1, 0.0001 μM",46.6%
same,Percent cytotoxicity wrt control,"PANC-1 Pancreatic; PANC-1, 0.001 μM",51.1%
same,Percent cytotoxicity wrt control,"PANC-1 Pancreatic; PANC-1, 0.01 μM",58.3%
same,Percent cytotoxicity wrt control,"PANC-1 Pancreatic; PANC-1, 0.1 μM",55%
same,Percent cytotoxicity wrt control,"PANC-1 Pancreatic; PANC-1, 10 μM",71%
same,IC50,"PANC-1 Pancreatic; read-out: IC50 Values, PANC-1 Pancreatic, after 48 h of treatment",0.7 nM
same,Percent cytotoxicity wrt control,"T24 Bladder; T24, 0.0001 μM",57.5%
same,Percent cytotoxicity wrt control,"T24 Bladder; T24, 0.001 μM",60.6%
same,Percent cytotoxicity wrt control,"T24 Bladder; T24, 0.01 μM",57.5%
same,Percent cytotoxicity wrt control,"T24 Bladder; T24, 0.1 μM",61.4%
same,Percent cytotoxicity wrt control,"T24 Bladder; T24, 1 μM",62.7%
same,Percent cytotoxicity wrt control,"T24 Bladder; T24, 10 μM",80.4%
same,IC50,"T24 Bladder; read-out: IC50 Values, T24 Bladder, after 48 h of treatment",2 nM
same,Percent cytotoxicity wrt control,U251 MG Brain; 0.001 μM,26.5%
same,Percent cytotoxicity wrt control,U251 MG Brain; 0.01 μM,23.1%
same,Percent cytotoxicity wrt control,U251 MG Brain; 0.1 μM,19.2%
same,Percent cytotoxicity wrt control,U251 MG Brain; 1 μM,27.2%
same,Percent cytotoxicity wrt control,U251 MG Brain; 10 μM,60.5%
same,IC50,"U251 MG Brain; read-out: IC50 Values, U251 MG Brain, after 48 h of treatment",6820 nM
same,Percent cytotoxicity wrt control,"A549 Lungs; A549, 0.0001 μM",13.7%
same,Percent cytotoxicity wrt control,"A549 Lungs; A549, 0.1 μM",45.2%
same,Percent cytotoxicity wrt control,"A549 Lungs; A549, 1 μM",53.3%
same,Percent cytotoxicity wrt control,"A549 Lungs; A549, 10 μM",66.7%
same,IC50,"A549 Lungs; read-out: IC50 Values, A549 Lungs, after 48 h of treatment",390 nM
same,Percent cytotoxicity wrt control,PBMC Normal; 0.0001 μM,16.9%
same,Percent cytotoxicity wrt control,PBMC Normal; 0.01 μM,40.3%
same,Percent cytotoxicity wrt control,PBMC Normal; 0.1 μM,38.7%
same,Percent cytotoxicity wrt control,PBMC Normal; 1 μM,38.2%
same,IC50,"PBMC Normal; read-out: IC50 Values, PBMC Normal, after 48 h of treatment",5090 nM
CC(=O)N[C@H]1[C@H](OC[C@H]2OC(O)[C@H](NC(C)=O)[C@@H](O[C@@H]3O[C@H](CO)[C@H](O)[C@H](O)[C@H]3O)[C@H]2O)O[C@H](CO)[C@@H](O)[C@@H]1O (stereo partly shown) [core 2],Estimated Kd,[1],0.212 ug/m
same,glycan binding,[1],Main binding motifs
CC[C@H](C)[C@@H]([C@@H](CC(=O)N1CCC[C@H]1[C@H](OC)[C@@H](C)C(=O)N[C@H](C)[C@@H](O)c1ccccc1)OC)N(C)C(=O)[C@@H](NC(=O)[C@H](C(C)C)N(C)C(=O)OCc1ccc(NC(=O)[C@H](CCCNC(N)=O)NC(=O)[C@@H](NC(=O)CCCCCN2C(=O)C=CC2=O)C(C)C)cc1)C(C)C [mc-vc-PAB-MMAE] ({Hexanoyl(6-maleimido)}-V[Cit][PABC][NMeV]V[Dil][Dolaproine]-X1),IC50,[3],647 nM
same,IC50,PA-1 cells,647 nM
Sialyl T antigen,Estimated Kd,[1],0.670 to 1.756 ug/m
same,glycan binding,[1],Main binding motifs

# From patent US20250302974A1, “LECTIN-DRUG CONJUGATES” (UNICHEM LABORATORIES LIMITED, priority 2021, published 2025)
